From patent publication US10457709B2, “Antimicrobial peptides, their variants and uses” (priority 2015, dated 2019)
≈ marks a conversion by molar mass, not a printed value. Square brackets hold non-standard residues; d marks the D form. Peptide text beside a SMILES is read from it.

Experiments:
[1] = tested on: C. glabrata clinical strains; experiment: MIC, clinical yeast strains; type: cell-based, Candida glabrata; set-up: unit: µg/ml
Description: (§1) Minimum inhibition concentrations (MICs) were determined against Escherichia coli (ATCC 25922), Staphylococcus aureus (ATCC 25923), Klebsiella pneumoniae (ATCC 10031) and Pseudomonas aeruginosa (ATCC 27853). Also clinical strains of E. coli, K. pneumoniae, E. cloacae, P. aeruginosa, Serratia marcescens, Proteus mirabilis, S. pneumoniae, Acinetobacter baumannii, A. johnsonii and S. aureus were used for MICs assays. Additionally, clinical strains of yeast including Candida albicans, C. glabrata, C. parapsilosis and C. quillermondiae were used. The susceptibility of these microorganisms to Chain peptides were determined using micro broth dilution assay. Colonies of the respective microorganism from Muller Hinton (MH) agar plates incubated overnight were suspended in MH broth media and final concentration of microorganism was adjusted to 5.0×10^5 cfu/ml. An aliquot of 10 μl of each Chain peptide, or gentamicin, tetracycline as reference antibiotics were added in differing concentrations along with 90 μl of bacterial suspension to 96 well polypropylene plates and incubated at 37° C. for 20 to 24 hours. Concentrations of Chain peptides and reference antibiotics ranged from 0.125 to 128 μg/ml and the MICs were recorded as the lowest concentration with no visual growth of bacteria. Similarly, antifungal MICs were tested in Potato dextrose broth.
(§2) Clinical strains of yeasts including Candida albicans, C. glabrata, C. parapsilosis and C. quillermondiae were also tested with the 12 Chain peptides. The minimum inhibitory concentration (MICs) varied between these peptides and are presented in Tables 4a, 4b, 4c and 5a, 5b, 5c. Peptides Chain 105, 201 and 308 are broad spectrum antimicrobials with MICs between 0.5-32 μg/ml against all the bacteria and yeasts tested, except Serratia marcescens and Proteus mirabilis, against which the MICs were between 64-128 μg/ml. Peptide Chain 306 has narrow spectrum activity against E. coli at 1 μg/ml and for the rest of the bacterial strains at >32 μg/ml (FIG. 10c).

[2] = tested on: Klebsiella pneumoniae clinical strains; type: cell-based; settings: clinical strains
Description: as §1, §2

[3] = tested on: Pseudomonas aeruginosa clinical strains; type: cell-based; settings: clinical strains
Description: as §1, §2

[4] = tested on: Escherichia coli clinical strains; type: cell-based; settings: clinical strains
Description: as §1, §2

[5] = tested on: Acinetobacter johnsonii clinical strains; type: cell-based; settings: clinical strain 1; D-form peptides; MH broth-cation adjusted, 0.02% BSA, 0.2% acetic acid
Description: as §1, §2

[6] = tested on: C. quillermondiae clinical strains; experiment: MIC, clinical yeast strains; type: cell-based, Candida quillermondiae; set-up: unit: μg/ml; settings: C. quillermondiae clinical yeast strain 1
Description: as §1, §2

[7] = tested on: C. parapsilosis clinical strains; experiment: MIC, clinical yeast strains; type: cell-based, Candida parapsilosis; set-up: unit: µg/ml
Description: as §1, §2

[8] = tested on: Candida albicans clinical strains; experiment: MIC, clinical yeast strains; type: cell-based; set-up: unit: μg/ml
Description: as §1, §2

[9] = tested on: Proteus mirabilis clinical strains; type: cell-based; settings: clinical strains
Description: as §1, §2

[10] = tested on: Serratia marcescens clinical strains; type: cell-based; settings: clinical strains
Description: as §1, §2

[11] = tested on: Enterobacter cloacae clinical strains; type: cell-based; settings: clinical strains
Description: as §1, §2

[12] = tested on: Streptococcus pneumoniae clinical strains; type: cell-based; settings: clinical strains
Description: as §1, §2

[13] = tested on: Acinetobacter baumannii clinical strains; type: cell-based; settings: clinical strains
Description: as §1, §2

[14] = tested on: Staphylococcus aureus clinical strains; type: cell-based; settings: clinical strains
Description: as §1, §2

[15] = tested on: all the bacteria and yeasts tested; type: cell-based
Description: as §1, §2

[16] = C. glabrata clinical yeast strain 1
[17] = C. glabrata clinical yeast strain 2
[18] = C. glabrata clinical yeast strain 3
[19] = C. glabrata clinical yeast strain 4
[20] = C. parapsilosis clinical yeast strain 1
[21] = C. parapsilosis clinical yeast strain 2
[22] = C. parapsilosis clinical yeast strain 3
[23] = C. parapsilosis clinical yeast strain 4
[24] = Candida albicans clinical yeast strain 1
[25] = Candida albicans clinical yeast strain 2
[26] = Candida albicans clinical yeast strain 3
[27] = Candida albicans clinical yeast strain 4
[28] = Candida albicans clinical yeast strain 5

## CC[C@@H](C)[C@@H](NC(=O)[C@@H](CCSC)NC(=O)[C@@H](C)NC(=O)[C@@H](CCCNC(=N)N)NC(=O)[C@@H](Cc1c[nH]c2ccccc12)NC(=O)[C@@H](CCCCN)NC(=O)[C@H](N)CCCNC(=N)N)C(=O)N[C@H](CCCNC(=N)N)C(=O)N[C@H](CC(C)C)C(=O)N[C@H](Cc1c[nH]cn1)C(=O)N[C@H](C)C(=O)N[C@H](CCCCN)C(=O)N[C@H](CCCNC(=N)N)C(=O)N[C@H](CC(C)C)C(=O)N[C@H](CCCNC(=N)N)C(=O)N[C@H](CCCCN)C(=O)O [Chain104D] (H-[dR][dK][dW][dR][dA][dM][dI][dR][dL][dH][dA][dK][dR][dL][dR][dK]-OH)
[1]; [16]
  Minimum inhibitory concentration: 8
[1]; [17]
  Minimum inhibitory concentration: 8
[1]; [18]
  Minimum inhibitory concentration: 8
[1]; [19]
  Minimum inhibitory concentration: 16
[2]
  MIC, Klebsiella pneumoniae strain 1: 8 µg/mL (≈ 3.77 µM)
  MIC, Klebsiella pneumoniae strain 2: 4 µg/mL (≈ 1.89 µM)
  MIC, Klebsiella pneumoniae strain 3: 8 µg/mL (≈ 3.77 µM)
  MIC, Klebsiella pneumoniae strain 4: 16 µg/mL (≈ 7.55 µM)
  MIC, Klebsiella pneumoniae strain 5: 4 µg/mL (≈ 1.89 µM)
[3]
  MIC, Pseudomonas aeruginosa strain 1: 4 µg/mL (≈ 1.89 µM)
  MIC, Pseudomonas aeruginosa strain 2: 2 µg/mL (≈ 0.944 µM)
  MIC, Pseudomonas aeruginosa strain 3: 4 µg/mL (≈ 1.89 µM)
  MIC, Pseudomonas aeruginosa strain 4: 2 µg/mL (≈ 0.944 µM)
  MIC, Pseudomonas aeruginosa strain 5: 1 µg/mL (≈ 0.472 µM)
[4]
  MIC, Escherichia coli strain 1: 4 µg/mL (≈ 1.89 µM)
  MIC, Escherichia coli strain 2: 4 µg/mL (≈ 1.89 µM)
  MIC, Escherichia coli strain 3: 4 µg/mL (≈ 1.89 µM)
  MIC, Escherichia coli strain 4: 4 µg/mL (≈ 1.89 µM)
  MIC, Escherichia coli strain 5: 4 µg/mL (≈ 1.89 µM)
[5]
  MIC, Acinetobacter johnsonii strain 1: 8 µg/mL (≈ 3.77 µM)
[6]
  Minimum inhibitory concentration: 4
[7]; [20]
  Minimum inhibitory concentration: 4
[7]; [21]
  Minimum inhibitory concentration: 4
[7]; [22]
  Minimum inhibitory concentration: 4
[7]; [23]
  Minimum inhibitory concentration: 2
[8]; [24]
  Minimum inhibitory concentration: 8
[8]; [25]
  Minimum inhibitory concentration: 8
[8]; [26]
  Minimum inhibitory concentration: 8
[8]; [27]
  Minimum inhibitory concentration: 8
[8]; [28]
  Minimum inhibitory concentration: 8
[9]
  MIC, Proteus mirabilis strain 1: >128 µg/mL
  MIC, Proteus mirabilis strain 2: 32 µg/mL (≈ 15.1 µM)
  MIC, Proteus mirabilis strain 3: 128 µg/mL (≈ 60.4 µM)
  MIC, Proteus mirabilis strain 4: >128 µg/mL
  MIC, Proteus mirabilis strain 5: >128 µg/mL
[10]
  MIC, Serratia marcescens strain 1: >128 µg/mL
  MIC, Serratia marcescens strain 2: >128 µg/mL
  MIC, Serratia marcescens strain 3: >128 µg/mL
  MIC, Serratia marcescens strain 4: >128 µg/mL
  MIC, Serratia marcescens strain 5: 128 µg/mL (≈ 60.4 µM)
[11]
  MIC, Enterobacter cloacae strain 1: 4 µg/mL (≈ 1.89 µM)
  MIC, Enterobacter cloacae strain 2: 4 µg/mL (≈ 1.89 µM)
  MIC, Enterobacter cloacae strain 3: 8 µg/mL (≈ 3.77 µM)
  MIC, Enterobacter cloacae strain 4: 4 µg/mL (≈ 1.89 µM)
  MIC, Enterobacter cloacae strain 5: 2 µg/mL (≈ 0.944 µM)
[12]
  MIC, Streptococcus pneumoniae strain 1: 4 µg/mL (≈ 1.89 µM)
  MIC, Streptococcus pneumoniae strain 2: 2 µg/mL (≈ 0.944 µM)
  MIC, Streptococcus pneumoniae strain 3: 1 µg/mL (≈ 0.472 µM)
  MIC, Streptococcus pneumoniae strain 4: 4 µg/mL (≈ 1.89 µM)
  MIC, Streptococcus pneumoniae strain 5: 1 µg/mL (≈ 0.472 µM)
[13]
  MIC, Acinetobacter baumannii strain 1: 16 µg/mL (≈ 7.55 µM)
  MIC, Acinetobacter baumannii strain 2: 8 µg/mL (≈ 3.77 µM)
  MIC, Acinetobacter baumannii strain 3: 8 µg/mL (≈ 3.77 µM)
  MIC, Acinetobacter baumannii strain 4: 4 µg/mL (≈ 1.89 µM)
  MIC, Acinetobacter baumannii strain 5: 8 µg/mL (≈ 3.77 µM)
[14]
  MIC, Staphylococcus aureus strain 1: 4 µg/mL (≈ 1.89 µM)
  MIC, Staphylococcus aureus strain 2: 2 µg/mL (≈ 0.944 µM)
  MIC, Staphylococcus aureus strain 3: 4 µg/mL (≈ 1.89 µM)
  MIC, Staphylococcus aureus strain 4: 2 µg/mL (≈ 0.944 µM)
  MIC, Staphylococcus aureus strain 5: 4 µg/mL (≈ 1.89 µM)

## CC[C@@H](C)[C@@H](NC(=O)[C@@H](CCSC)NC(=O)[C@@H](C)NC(=O)[C@@H](CCCNC(=N)N)NC(=O)[C@@H](Cc1c[nH]c2ccccc12)NC(=O)[C@@H](CCCCN)NC(=O)[C@H](N)CCCNC(=N)N)C(=O)N[C@H](CCCNC(=N)N)C(=O)N[C@H](CC(C)C)C(=O)N[C@H](Cc1c[nH]cn1)C(=O)N[C@H](C)C(=O)N[C@H](CCCCN)C(=O)N[C@H](Cc1c[nH]c2ccccc12)C(=O)N[C@H](CC(C)C)C(=O)N[C@H](CCCNC(=N)N)C(=O)N[C@H](CCCCN)C(=O)O [Chain105D] (H-[dR][dK][dW][dR][dA][dM][dI][dR][dL][dH][dA][dK][dW][dL][dR][dK]-OH)
[1]; [16]
  Minimum inhibitory concentration: 16
[1]; [17]
  Minimum inhibitory concentration: 16
[1]; [18]
  Minimum inhibitory concentration: 8
[1]; [19]
  Minimum inhibitory concentration: 32
[15]
  MICs against all the bacteria and yeasts tested: 0.5 to 32 µg/mL
[2]
  MIC, Klebsiella pneumoniae strain 1: 4 µg/mL (≈ 1.86 µM)
  MIC, Klebsiella pneumoniae strain 2: 2 µg/mL (≈ 0.93 µM)
  MIC, Klebsiella pneumoniae strain 3: 4 µg/mL (≈ 1.86 µM)
  MIC, Klebsiella pneumoniae strain 4: 4 µg/mL (≈ 1.86 µM)
  MIC, Klebsiella pneumoniae strain 5: 2 µg/mL (≈ 0.93 µM)
[3]
  MIC, Pseudomonas aeruginosa strain 1: 4 µg/mL (≈ 1.86 µM)
  MIC, Pseudomonas aeruginosa strain 2: 4 µg/mL (≈ 1.86 µM)
  MIC, Pseudomonas aeruginosa strain 3: 4 µg/mL (≈ 1.86 µM)
  MIC, Pseudomonas aeruginosa strain 4: 4 µg/mL (≈ 1.86 µM)
  MIC, Pseudomonas aeruginosa strain 5: 4 µg/mL (≈ 1.86 µM)
[4]
  MIC, Escherichia coli strain 1: 1 µg/mL (≈ 0.465 µM)
  MIC, Escherichia coli strain 2: 4 µg/mL (≈ 1.86 µM)
  MIC, Escherichia coli strain 3: 1 µg/mL (≈ 0.465 µM)
  MIC, Escherichia coli strain 4: 1 µg/mL (≈ 0.465 µM)
  MIC, Escherichia coli strain 5: 2 µg/mL (≈ 0.93 µM)
[5]
  MIC, Acinetobacter johnsonii strain 1: 4 µg/mL (≈ 1.86 µM)
[6]
  Minimum inhibitory concentration: 8
[7]; [20]
  Minimum inhibitory concentration: 8
[7]; [21]
  Minimum inhibitory concentration: 8
[7]; [22]
  Minimum inhibitory concentration: 8
[7]; [23]
  Minimum inhibitory concentration: 4
[8]; [24]
  Minimum inhibitory concentration: 32
[8]; [25]
  Minimum inhibitory concentration: 16
[8]; [26]
  Minimum inhibitory concentration: 32
[8]; [27]
  Minimum inhibitory concentration: 32
[8]; [28]
  Minimum inhibitory concentration: 32
[9]
  MIC, Proteus mirabilis strain 1: >128 µg/mL
  MIC, Proteus mirabilis strain 2: 32 µg/mL (≈ 14.9 µM)
  MIC, Proteus mirabilis strain 3: 64 µg/mL (≈ 29.8 µM)
  MIC, Proteus mirabilis strain 4: >128 µg/mL
  MIC, Proteus mirabilis strain 5: >128 µg/mL
  MICs against Proteus mirabilis: 64 to 128 µg/mL
[10]
  MIC, Serratia marcescens strain 1: 128 µg/mL (≈ 59.5 µM)
  MIC, Serratia marcescens strain 2: 128 µg/mL (≈ 59.5 µM)
  MIC, Serratia marcescens strain 3: 128 µg/mL (≈ 59.5 µM)
  MIC, Serratia marcescens strain 4: 128 µg/mL (≈ 59.5 µM)
  MIC, Serratia marcescens strain 5: 128 µg/mL (≈ 59.5 µM)
  MICs against Serratia marcescens: 64 to 128 µg/mL
[11]
  MIC, Enterobacter cloacae strain 1: 2 µg/mL (≈ 0.93 µM)
  MIC, Enterobacter cloacae strain 2: 2 µg/mL (≈ 0.93 µM)
  MIC, Enterobacter cloacae strain 3: 2 µg/mL (≈ 0.93 µM)
  MIC, Enterobacter cloacae strain 4: 2 µg/mL (≈ 0.93 µM)
  MIC, Enterobacter cloacae strain 5: 1 µg/mL (≈ 0.465 µM)
[12]
  MIC, Streptococcus pneumoniae strain 1: 4 µg/mL (≈ 1.86 µM)
  MIC, Streptococcus pneumoniae strain 2: 2 µg/mL (≈ 0.93 µM)
  MIC, Streptococcus pneumoniae strain 3: 2 µg/mL (≈ 0.93 µM)
  MIC, Streptococcus pneumoniae strain 4: 4 µg/mL (≈ 1.86 µM)
  MIC, Streptococcus pneumoniae strain 5: 2 µg/mL (≈ 0.93 µM)
[13]
  MIC, Acinetobacter baumannii strain 1: 4 µg/mL (≈ 1.86 µM)
  MIC, Acinetobacter baumannii strain 2: 4 µg/mL (≈ 1.86 µM)
  MIC, Acinetobacter baumannii strain 3: 4 µg/mL (≈ 1.86 µM)
  MIC, Acinetobacter baumannii strain 4: 2 µg/mL (≈ 0.93 µM)
  MIC, Acinetobacter baumannii strain 5: 4 µg/mL (≈ 1.86 µM)
[14]
  MIC, Staphylococcus aureus strain 1: 2 µg/mL (≈ 0.93 µM)
  MIC, Staphylococcus aureus strain 2: 2 µg/mL (≈ 0.93 µM)
  MIC, Staphylococcus aureus strain 3: 2 µg/mL (≈ 0.93 µM)
  MIC, Staphylococcus aureus strain 4: 2 µg/mL (≈ 0.93 µM)
  MIC, Staphylococcus aureus strain 5: 2 µg/mL (≈ 0.93 µM)
